The subject of one assay is Leptosphaeria nodorum. Nature of the assay: Activity against wheat leafspot (LN). The following applies: direct therapeutic foliar spray, 600 ppm, 6-8 days. It is filed as in vivo. The protocol: (d) Activity against wheat leafspot (Leptosphaeria nodorum; LN.) The test is a direct therapeutic foliar spray. Leaves of wheat plants (cv Norman), at the single leaf stage, are inoculated by spraying with an aqueous suspension containing 1.5×10^6 conidia/ml. The inoculated plants are kept for 24 hours in a high humidity compartment prior to treatment. The plants are sprayed with a solution of the test compound at a dosage of 600 ppm using an automated sprayline as described under (a). After drying, the plants are kept for 6-8 days at 22° C. and moderate humidity (70%). Assessment is based on the density of lesions per leaf compared with that on leaves of control plants. The extent of disease control in all the above tests is expressed as a rating compared with either an untreated control or a diluent-sprayed-control, according to the criteria: […]

In the next assay the test system is Venturia inaequalis. Nature of the assay: Activity against apple scab in-vitro (VII). It counts as cell-based. The following applies: 10 ppm, 10 days, 20° C., mycelial growth. As for the experimental part: (j) Activity against apple scab in-vitro (Venturia inaequalis: VII) This test measures the in-vitro activity of compounds against V. inaequalis that causes apple scab. The test compound in acetone is added into 4 ml aliquots of half strength Potato Dextrose Broth dispensed in 25-compartment petri dishes to give final concentrations of 10 ppm. The fungal inoculum consists of mycelial fragments and spores of V. inaequalis grown on malt agar and added to the broth to provide 5×10^4 propagules/ml broth. Petri dishes are incubated at 20° C. for 10 days until the assessment of mycelial growth. The extent of disease control in all the above tests is expressed as a rating compared with either an untreated control or a diluent-sprayed-control, according to the criteria: […]

A further assay relates to Alternaria solani. In words: Activity against tomato early blight (AS). It counts as in vivo. The following applies: Table VI; tomato seedlings, contact prophylactic foliar spray, 4 days. As for the experimental part:
b) Activity against tomato early blight (Alternaria solani; AS) This test measures the contact prophylactic activity of test compounds applied as a foliar spray. Tomato seedlings (cv Outdoor Girl) are grown to the stage at which the second true leaf is expanded. The plants are treated using an automated sprayline as described under (a). Test compounds are applied as solutions or suspensions in a mixture of acetone and water (50:50 v/v) containing 0.04% surfactant ("TWEEN 20"--Trade Mark). After drying the plants are kept for 24 hours in a glasshouse at 20° C. and 40% R.H., followed by inoculation of the leaf upper surfaces with a suspension of A. solani conidia containing 10^4 spores/ml. For 4 days after inoculation plants are kept moist in a humidity compartment at 21° C. Disease is assessed 4 days after inoculation, based on the percentage of leaf surface area covered by lesions when compared with control plants. The extent of disease control in all the above tests is expressed as a rating compared with either an untreated control or a diluent-sprayed-control, according to the criteria: […]

Assay [1] has as its system Pseudocercosporella herpotrichoides. In words: Activity against wheat eyespot in-vitro (PHI). It counts as cell-based. Conditions: 10 ppm, 10 days, 20° C., mycelial growth. As for the experimental part: (h) Activity against wheat eyespot in-vitro (Pseudocercosporella herpotrichoides; pHI) This test measures the in vitro activity of compounds against the fungus causing wheat eyespot. The test compound is dissolved or suspended in acetone and is added into 4 ml aliquots of half strength Potato Dextrose Broth (PDB) dispended in 25-compartment petri dishes to give a final concentration of 10ppm. The fungal inoculum consists of mycelial fragments of P. herpotrichoides grown in half strength PDB in shaken flasks and added to the broth to provide 5×10^4 fragments/ml broth. Petri dishes are incubated at 20° C. for 10 days until the assessment of mycelial growth. The extent of disease control in all the above tests is expressed as a rating compared with either an untreated control or a diluent-sprayed-control, according to the criteria: […]

The test system of the next assay is Phytophthora infestans. It is filed as in vivo. The following applies: tomato, direct protectant foliar spray.
Assay [2] concerns Erysiphe graminis f.sp. hordei. In words: Activity against barley powdery mildew, direct therapeutic (EGT). It is filed as in vivo. Conditions: direct therapeutic foliar spray, 600 ppm, up to 7 days. As for the experimental part: (e) Activity against barley powdery mildew (Erysiphe graminis f.sp. hordei; EGT) The test is a direct therapeutic foliar spray. Leaves of barley seedlings, (cv. Golden Promise) at the single leaf stage are inoculated by dusting with mildew conidia one day prior to treatment with the test compound. The inoculated plants are kept overnight at glasshouse ambient temperature (18° C.) and humidity (40%) prior to treatment. The plants are sprayed with the test compound at a dosage of 600 ppm using an automated sprayline as described under (a). After drying, plants are returned to a compartment at 18° C. and 40% humidity for up to 7 days. Assessment is based on the percentage of leaf area covered by sporulation compared with that on leaves of control plants. The extent of disease control in all the above tests is expressed as a rating compared with either an untreated control or a diluent-sprayed-control, according to the criteria: […]

For assay [3], the system named is Erysiphe graminis f.sp. hordei. In words: Direct protectant activity against barley powdery mildew (EGP). It counts as in vivo. The following applies: direct protectant foliar spray, 8 days. As for the experimental part: (f) Direct protectant activity against barley powdery mildew (Erysiphe graminis f.sp. hordei; EGP) The test is a direct protectant foliar spray. Leaves of barley seedlings (cv Golden Promise) at the single leaf stage are sprayed with the test compound as described under (a). After drying, the plants are kept for 24 hours in a glasshouse at 18° C. and 40% R.H. Then the plants are inoculated by dusting with mildew conidia and kept at 18° C. and 40% R.H. for 8 days. Assessment is based on the percentage of leaf area covered by sporulation compared with that on leaves of control plants. The extent of disease control in all the above tests is expressed as a rating compared with either an untreated control or a diluent-sprayed-control, according to the criteria: […]

In a further assay the test system is Botrytis cinerea. In words: Direct protectant activity against broad bean grey mould (BCB). It is filed as in vivo. Conditions: direct protectant foliar spray, 600 ppm, 4 days. As for the experimental part:
(c) Direct protectant activity against broad bean grey mould (Botrytis cinerea; BCB) The test is a direct protectant foliar spray. The upper surfaces of leaves of broad bean plants with two leaf pairs (cv The Sutton) are sprayed with the test compound at a dosage of 600 ppm using an automated sprayline as described under (a). 24 hours after spraying the leaves are inoculated with an aqueous suspension containing 10^6 conidia/ml. For 4 days after inoculation plants are kept in a high humidity compartment at 22° C. Disease is assessed 4 days after inoculation, based on the percentage of leaf surface area covered by lesions. The extent of disease control in all the above tests is expressed as a rating compared with either an untreated control or a diluent-sprayed-control, according to the criteria: […]

Another assay concerns Plasmopara viticola. In words: Antisporulant activity against vine downy mildew (PVA). It is filed as in vivo. The following applies: vine leaves, antisporulant foliar spray, 600 ppm, 750 l/ha. The protocol:
(a) Antisporulant activity against vine downy mildew (Plasmopara viticola; PVA) The test is a direct antisporulant one using a foliar spray. The lower surfaces of leaves of whole vine plants (cv Cabernet Sauvignon), approximately 8 cm high, are inoculated by spraying with an aqueous suspension containing 5×10^4 zoosporangia/ml. The inoculated plants are kept for 24 hours at 21° C. in a high humidity compartment, then 24 hours at glasshouse ambient temperature and humidity. Infected leaves are sprayed on their lower surfaces with a solution of active material in 1:1 water/acetone containing 0.04% "TWEEN 20" (Trade Mark; a polyoxyethylene sorbitan ester surfactant). Plants are treated using an automated sprayline with an atomising nozzle. The concentration of the compound is 600 ppm, and the spray volume is 750 l/ha. After spraying, the plants are returned to normal glasshouse conditions for 96 hours and are then transferred to the high humidity compartment for 24 hours to induce sporulation. Assessment is based on the percentage of the leaf area covered by sporulation compared with that on control leaves. The extent of disease control in all the above tests is expressed as a rating compared with either an untreated control or a diluent-sprayed-control, according to the criteria: […]

The test system of another assay is Pyricularia oryzae. It is filed as in vivo. Conditions: rice seedlings, direct therapeutic foliar spray, 600 ppm, 4-5 days.
A further assay deals with Rhizoctonia solani. In words: Activity against Rhizoctonia in-vitro (RSI). It counts as cell-based. The following applies: 10 ppm, 10 days, 20° C., mycelial growth. The protocol:
(i) Activity against Rhizoctonia in-vitro (Rhizoctonia solani: RSI) This test measures the in-vitro activity of compounds against R. solani that causes stem and root rots. The test compound in acetone is added into 4 ml aliquots of half strength Potato Dextrose Broth dispensed in 25-compartment petri dishes to give final concentrations of 10 ppm. The fungal inoculum consists of mycelial fragments of R. solani growth in half strength PDB in shaken culture flasks and added to the broth to provide 5×10^4 fragments/ml broth. Petri dishes are incubated at 20° C. for 10 days until the assessment of mycelial growth. The extent of disease control in all the above tests is expressed as a rating compared with either an untreated control or a diluent-sprayed-control, according to the criteria: […]

In the case of `CC(C)(C)C1CCC2(CC1)CC(O)(CNC1CCCCC1)CO2` (single isomer, unassigned) [Compound 213, 8-t-Butyl-3-cyclohexylaminomethyl-3-hydroxy-1-oxaspiro-(4,5)decane], the “disease control rating LN” value with Leptosphaeria nodorum is on record as 0 (less than 50% disease control). In the assay with Venturia inaequalis, the “disease control rating VII” value is listed as 0 (less than 50% disease control). Besides, the “disease control rating AS” value in the assay with Alternaria solani is listed as 2 (greater than 80% disease control). Further, the “disease control rating PHI” value in [1] is reported as 0 (less than 50% disease control). Further, the “disease control rating PIP” value in the assay with Phytophthora infestans is reported as 2 (greater than 80% disease control). Further, the “disease control rating EGT” value in [2] is reported as 2 (greater than 80% disease control). Further, in assay [3], the “disease control rating EGP” value is 2 (greater than 80% disease control). Also, the “disease control rating BCB” value in the assay with Botrytis cinerea was 2 (greater than 80% disease control). Moreover, the “disease control rating PVA” value with Plasmopara viticola was 0 (less than 50% disease control). Moreover, in the assay with Pyricularia oryzae, the “disease control rating PO” value was 1 (about 50-80% disease control). Besides, the “disease control rating RSI” value with Rhizoctonia solani is reported as 0 (less than 50% disease control).

In the case of `CC(C)(C)C1CCC2(CC1)CC(N1CCC(c3ccccc3)CC1)CO2` (centres unmarked) [Compound 4], in the assay with Leptosphaeria nodorum, the “disease control rating LN” value is 1 (about 50-80% disease control). The “disease control rating VII” value with Venturia inaequalis is 1 (about 50-80% disease control). Also, the “disease control rating AS” value in the assay with Alternaria solani is 0 (less than 50% disease control). Also, the “disease control rating PHI” value in assay [1] was 1 (about 50-80% disease control). In addition, in the assay with Phytophthora infestans, the “disease control rating PIP” value was 0 (less than 50% disease control). Also, the “disease control rating EGT” value in [2] is 2 (greater than 80% disease control). In addition, the “disease control rating EGP” value in assay [3] is reported as 2 (greater than 80% disease control). Further, in the assay on Botrytis cinerea, the “disease control rating BCB” value is listed as 0 (less than 50% disease control). Besides, the “disease control rating PVA” value in the assay on Plasmopara viticola is 0 (less than 50% disease control). In addition, the “disease control rating PO” value in the assay with Pyricularia oryzae was 0 (less than 50% disease control). Also, in the assay on Rhizoctonia solani, the “disease control rating RSI” value was 0 (less than 50% disease control).

Consider `CCCCCCCNC1COC2(CCC(C(C)(C)C)CC2)C1` (centres unmarked) [Compound 5], for which the “disease control rating LN” value in the assay on Leptosphaeria nodorum was 0 (less than 50% disease control). For the same compound, the “disease control rating VII” value in the assay on Venturia inaequalis was 0 (less than 50% disease control). The “disease control rating AS” value with Alternaria solani is on record as 0 (less than 50% disease control). For the same compound, in assay [1], the “disease control rating PHI” value is reported as 0 (less than 50% disease control). Also, the “disease control rating PIP” value in the assay with Phytophthora infestans is 0 (less than 50% disease control). Moreover, in [2], the “disease control rating EGT” value is listed as 2 (greater than 80% disease control). The “disease control rating EGP” value in assay [3] was 2 (greater than 80% disease control). Further, the “disease control rating BCB” value in the assay with Botrytis cinerea is recorded as 1 (about 50-80% disease control). Besides, the “disease control rating PVA” value with Plasmopara viticola is 0 (less than 50% disease control). Besides, in the assay on Pyricularia oryzae, the “disease control rating PO” value is 0 (less than 50% disease control). In addition, in the assay with Rhizoctonia solani, the “disease control rating RSI” value is recorded as 1 (about 50-80% disease control).

As for `CC(C)(C)C1CCC2(CC1)CC(N1CCC3CCCCC3C1)CO2` (centres unmarked) [Compound 6], in the assay on Leptosphaeria nodorum, the “disease control rating LN” value was 0 (less than 50% disease control). The “disease control rating VII” value with Venturia inaequalis is 1 (about 50-80% disease control). In addition, in the assay on Alternaria solani, the “disease control rating AS” value is listed as 0 (less than 50% disease control). In assay [1], the “disease control rating PHI” value was 0 (less than 50% disease control). Moreover, the “disease control rating PIP” value in the assay with Phytophthora infestans is given as 0 (less than 50% disease control). Moreover, the “disease control rating EGT” value in [2] was 2 (greater than 80% disease control). In assay [3], the “disease control rating EGP” value is listed as 2 (greater than 80% disease control). Further, the “disease control rating BCB” value with Botrytis cinerea is 1 (about 50-80% disease control). Also, in the assay on Plasmopara viticola, the “disease control rating PVA” value is given as 0 (less than 50% disease control). The “disease control rating PO” value with Pyricularia oryzae was 0 (less than 50% disease control). The “disease control rating RSI” value in the assay on Rhizoctonia solani is recorded as 1 (about 50-80% disease control).

Source of the values: patent US5591741A, “Fungicidal spiroheterocyclic derivatives” (American Cyanamid Company, priority 1993, dated 1997).
